{"source": "BindingDB's records for doi:10.1021/jm970200u", "about": "(Northwestern University, 1997)", "note": "Where a SMILES comes first, the peptide text is derived from it. [ ]: non-standard residue; d: D form. The star is where a group is joined. dArg(NO2) = N=C(NCCC[C@@H](N)C(=O)O)N[N+](=O)[O-]; Arg(NO2) = N=C(NCCC[C@H](N)C(=O)O)N[N+](=O)[O-]; OBn = c1ccc(CO*)cc1", "data": [{"assay": "Inhibition of Neuronal Nitric oxide synthase enzyme (nNOS)", "units": {"Ki": "µM"}, "values": [{"smiles": "NC(=NCCC[C@H](N)C(=O)N[C@@H](Cc1ccccc1)C(=O)O)N[N+](=O)[O-]", "Ki": 18}, {"smiles": "COC(=O)[C@H](Cc1ccccc1)NC(=O)[C@@H](N)CCCN=C(N)N[N+](=O)[O-]", "Ki": 290}, {"smiles": "COC(=O)[C@@H](CCCN=C(N)N[N+](=O)[O-])NC(=O)[C@H](N)Cc1ccccc1", "Ki": 400}, {"smiles": "COC(=O)[C@@H](Cc1ccccc1)NC(=O)[C@@H](N)CCCN=C(N)N[N+](=O)[O-]", "Ki": 92}, {"smiles": "NC(=NCCC[C@H](N)C(=O)N[C@@H](Cc1ccccc1)C(=O)OCc1ccccc1)N[N+](=O)[O-]", "Ki": 55}, {"smiles": "COC(=O)[C@H](CCCN=C(N)N[N+](=O)[O-])NC(=O)[C@@H](N)Cc1ccccc1", "Ki": 370}, {"smiles": "COC(=O)[C@@H](CCCN=C(N)N[N+](=O)[O-])NC(=O)[C@@H](N)Cc1ccccc1", "Ki": 90}, {"smiles": "NC(=NCCC[C@H](NC(=O)[C@@H](N)Cc1ccccc1)C(=O)OCc1ccccc1)N[N+](=O)[O-]", "note": "(H-Phe-[Arg(NO2)]-OBn)", "Ki": 110}, {"smiles": "N=C(NCCC[C@@H](NC(=O)[C@H](N)Cc1ccccc1)C(=O)O)N[N+](=O)[O-]", "note": "[(2R)-2-{[(2R)-2-amino-3-phenylpropanoyl]amino}-5-{[(Z)-imino(nitroamino)methyl]amino}pentanoic acid] (H-[dF]-[dArg(NO2)]-OH)", "Ki": 17}, {"smiles": "COC(=O)[C@@H](Cc1ccccc1)NC(=O)[C@H](N)CCCNC(=N)N[N+](=O)[O-]", "note": "[D-Nitroarginine,methoxy-D-phenylalanine,with 2M of hydrochloric acid]", "Ki": 150}]}]}
